Reference: patent US20020071842A1, “Soluble CD1 compositions and uses thereof” (priority 2000, published 2002)

How the values were obtained:
Assay in all cases: Plate-bound mCD1d fusion protein hybridoma stimulation assay (IL-2 ELISA)
Format in all cases: cell-based, mouse
[1] = system: 24.8.A hybridoma; conditions: for IL-2 response to mCD1d fusion protein pre-treated with purified or synthetic lipid: 24.8.A hybridoma, compared to untreated or buffer treated fusion protein
Text: (§1) The CD1d-restricted T cell clones 24.7, 24.8, 24.9 (NKT cell) and 14S.6, 14S.7, 14S.10, and 14S.15 (diverse TCRs) were all derived from spleen of wild type C57BL/6 mice, as described previously (Behar, S. M. et al., J. Immunol., 162:161-7 (1999)). To generate T cell hybridomas, the activated T cells were fused to the aminopterin-sensitive BW5147 αβTCR^− thymoma cell line using PEG1500, and hybrids were selected in HAT medium (Life Technologies, Gaithersburg, Md.). Resulting TT hybridomas were tested for recognition of RMA-S cells transfected with mCD1D1 compared to untransfected RMA-S cells, as described below. […] The hybridomas are distinguished from the original T cell clones by the addition of a letter to their names. The KT/7, KT/12, KT/22, and KT/23 and Vβ/9 NKT cell hybridomas were derived from NK1.1^+ T cells enriched from spleen of C57BL/6 mice by depletion of CD8+ T cells, naive T cells, and B cells by mAbs (anti-B220, CD8, and CD62L, or anti-CD8α, CD8β, and Me114) bound to magnetic microbeads, or to plastic. The purified cells were stimulated either by the anti-CD3 KT3 mAb (KT/7, KT/12, KT/22, KT/23), or by an anti-Vβ8.2 mAb (Vβ/9), and addition of IL-2 or IL-2 and IL-7. After 4-5 days of culture the cells were fused with BW5147 thymoma cells. The VII68, VIII24, XVI9, and XV104 diverse TCR hybridomas were generated from CD4^+ T cells from class 110 mice, as described previously (Cardell, S. et al., J. Exp. Med., 182:993-1004 (1995)). The DN32D3 hybridoma was derived as described (Lantz, O., and Bendelac, A., J. Exp. Med., 180:1097-106 (1994).
(§2) To test for recognition of the mCD1d fusion protein and purified or synthetic antigens, 96 well protein A coated plates (Pierce Chemical Company) were incubated with 400-600 ng/well of the fusion protein or a negative control IgG2a antibody, RPC5.4 or UPC10, in PBS, at pH 7.2. Lipid antigens were diluted into PBS and added where specified at the indicated molar ratio of antigen to fusion protein, (when not specified the ratio was 40:1). Protein A plates containing the fusion protein and antigen were incubated 24-48 hr at 37° C., then washed three times with 200 μl/well sterile PBS, pH 7.2, and two times with 200 μl/well sterile culture medium (containing RPMI supplemented with L-glutamine and penicillin/streptomycin, Life Technologies, Gaithersburg, Md., and 10% bovine calf serum, Hyclone Laboratories, Logan, Utah). For assays in which the PI was phospholipase treated, it was first diluted into 0.01M Tris, 0.15M NaCl, pH 7.5, containing 0.25 U PI-specific phospholipase C or 0.5 U phospholipase D (Sigma, St Louis, Mo.), and incubated 30 minutes at room temperature, then added to the protein A plates as described above. For assays in which the pH was varied during antigen incubation with the fusion protein, the fusion protein and α-GalCer were diluted into a 20 mM citrate/phosphate buffer of the specified pH, which contained 0.15 M NaCl, and after incubation, the samples were neutralized by addition of 1M Tris, pH 7.5. Hybridoma cells were added to fusion protein/antigen treated plates at a concentration of 1×10^5 cells/well, in a total volume of 150 μl/well. Assays were performed using 2-6 replicate wells. In some assays, an anti-mCD1d blocking antibody (19G11) was included at a final concentration of 20 μg/ml. The plates were incubated at 37° C. for 16-20 hr, and culture supernatants were withdrawn for analysis. Each experiment was performed at least three times.
(§3) IL-2 secreted in the hybridoma stimulation assays was quantitated in a double antibody sandwich ELISA, by comparison to a standard curve of purified murine IL-2 (Pharmingen, San Diego, Calif.). Hybridoma plate stimulation supernatants (used either neat or diluted) and serially diluted IL-2 standards were added to 96 well ELISA plates coated with a rat anti-mouse IL-2 capture antibody (Pharmingen).

[2] = system: XV19 hybridoma; conditions: XV19 diverse TCR hybridoma; plate-bound mCD1d-IgGFc2a fusion protein preincubated with lipid antigen
Text: as §1, §2
as §3, with “(Pharmingen). […]” for “(Pharmingen).”

[3] = system: XV104 hybridoma; conditions: XV104 diverse TCR hybridoma; plate-bound mCD1d-IgGFc2a fusion protein preincubated with lipid antigen
Text: as §1, §2
as §3, with “(Pharmingen). […]” for “(Pharmingen).”

[4] = system: KT/22 hybridoma; conditions: KT/22 NKT hybridoma; plate-bound mCD1d-IgGFc2a fusion protein preincubated with lipid antigen
Text: as §1, §2
as §3, with “(Pharmingen). […]” for “(Pharmingen).”

[5] = system: KT/23 hybridoma; conditions: KT/23 NKT hybridoma; plate-bound mCD1d-IgGFc2a fusion protein preincubated with lipid antigen
Text: as §1, §2
as §3, with “(Pharmingen). […]” for “(Pharmingen).”

[6] = system: KT/12 hybridoma; conditions: KT/12 NKT hybridoma; plate-bound mCD1d-IgGFc2a fusion protein preincubated with lipid antigen
Text: as §1, §2
as §3, with “(Pharmingen). […]” for “(Pharmingen).”

[7] = system: 14S.15.A hybridoma; conditions: 14S.15.A diverse TCR hybridoma; plate-bound mCD1d-IgGFc2a fusion protein preincubated with lipid antigen
Text: as §1, §2
as §3, with “(Pharmingen). […]” for “(Pharmingen).”

[8] = system: 14S.6.A hybridoma; conditions: 14S.6.A diverse TCR hybridoma; plate-bound mCD1d-IgGFc2a fusion protein preincubated with lipid antigen
Text: as §1, §2
as §3, with “(Pharmingen). […]” for “(Pharmingen).”

[9] = system: VII68 hybridoma; conditions: VII68 diverse TCR hybridoma; plate-bound mCD1d-IgGFc2a fusion protein preincubated with lipid antigen
Text: as §1, §2
as §3, with “(Pharmingen). […]” for “(Pharmingen).”

[10] = system: KT/7 hybridoma; conditions: KT/7 NKT hybridoma; plate-bound mCD1d-IgGFc2a fusion protein preincubated with lipid antigen
Text: as §1, §2
as §3, with “(Pharmingen). […]” for “(Pharmingen).”

[11] = system: 24.9.E hybridoma; conditions: 24.9 E NKT hybridoma; plate-bound mCD1d-IgGFc2a fusion protein preincubated with lipid antigen
Text: as §1, §2
as §3, with “(Pharmingen). […]” for “(Pharmingen).”

[12] = system: VIII24 hybridoma; conditions: VIII24 diverse TCR hybridoma; plate-bound mCD1d-IgGFc2a fusion protein preincubated with lipid antigen
Text: as §1, §2
as §3, with “(Pharmingen). […]” for “(Pharmingen).”

[13] = system: 24.7.C hybridoma; conditions: 24 7.C NKT hybridoma; plate-bound mCD1d-IgGFc2a fusion protein preincubated with lipid antigen
Text: as §1, §2
as §3, with “(Pharmingen). […]” for “(Pharmingen).”

[14] = system: 14S.7.N hybridoma; conditions: 14S.7.N diverse TCR hybridoma; plate-bound mCD1d-IgGFc2a fusion protein preincubated with lipid antigen
Text: as §1, §2
as §3, with “(Pharmingen). […]” for “(Pharmingen).”

[15] = system: DN32D3 hybridoma; conditions: DN32D3 NKT hybridoma; plate-bound mCD1d-IgGFc2a fusion protein preincubated with lipid antigen
Text: as §1, §2
as §3, with “(Pharmingen). […]” for “(Pharmingen).”

[16] = system: Vβ/9 hybridoma; conditions: Vβ/9 NKT hybridoma; plate-bound mCD1d-IgGFc2a fusion protein preincubated with lipid antigen
Text: as §1, §2
as §3, with “(Pharmingen). […]” for “(Pharmingen).”

Row | Compound | IL-2 response to mCD1d fusion protein pre-treated with purified or synthetic lipid [1] | IL-2 secretion ([1]; 24.8 A NKT hybridoma, plate-bound mCD1d-IgGFc2a fusion protein preincubated with lipid antigen) | IL-2 secretion [2] | IL-2 secretion [3] | IL-2 secretion [4] | IL-2 secretion [5] | IL-2 secretion [6] | IL-2 secretion [7] | IL-2 secretion [8] | IL-2 secretion [9] | IL-2 secretion [10] | IL-2 secretion [11] | IL-2 secretion [12] | IL-2 secretion [13] | IL-2 secretion [14] | IL-2 secretion [15] | IL-2 secretion [16]
1 | CCCCCCCCCCCCCCCC(=O)OCC(COP(=O)(O)O)OC(=O)CCCCCCCCCCCCCCC (stereo not drawn) [PA, phosphatidic acid] | little or no stimulation | + (“+” indicates 50-250 pg/ml) | 0 (A “0” indicates a mean of less than 50 pg/ml IL-2 was secreted) | 0 (A “0” indicates a mean of less than 50 pg/ml IL-2 was secreted) | 0 (A “0” indicates a mean of less than 50 pg/ml IL-2 was secreted) | 0 (A “0” indicates a mean of less than 50 pg/ml IL-2 was secreted) | 0 (A “0” indicates a mean of less than 50 pg/ml IL-2 was secreted) | 0 (A “0” indicates a mean of less than 50 pg/ml IL-2 was secreted) | 0 (A “0” indicates a mean of less than 50 pg/ml IL-2 was secreted) | 0 (A “0” indicates a mean of less than 50 pg/ml IL-2 was secreted) | 0 (A “0” indicates a mean of less than 50 pg/ml IL-2 was secreted) | 0 (A “0” indicates a mean of less than 50 pg/ml IL-2 was secreted) | 0 (A “0” indicates a mean of less than 50 pg/ml IL-2 was secreted) | 0 (A “0” indicates a mean of less than 50 pg/ml IL-2 was secreted) | 0 (A “0” indicates a mean of less than 50 pg/ml IL-2 was secreted) | 0 (A “0” indicates a mean of less than 50 pg/ml IL-2 was secreted) | 0 (A “0” indicates a mean of less than 50 pg/ml IL-2 was secreted)
2 | O[C@H]1[C@H](O)[C@@H](O)[C@H](O)[C@@H](O)[C@H]1O [inositol] | little or no stimulation |  |  |  |  |  |  |  |  |  |  |  |  |  |  |  | 
3 | CCCCCCCCCCCCCCCC(=O)O [palmitate, Palmitic acid] | little or no stimulation |  |  |  |  |  |  |  |  |  |  |  |  |  |  |  | 
4 | diacyl glyceride [DAG] | little or no stimulation |  | 0 (A “0” indicates a mean of less than 50 pg/ml IL-2 was secreted) | 0 (A “0” indicates a mean of less than 50 pg/ml IL-2 was secreted) | 0 (A “0” indicates a mean of less than 50 pg/ml IL-2 was secreted) | 0 (A “0” indicates a mean of less than 50 pg/ml IL-2 was secreted) | 0 (A “0” indicates a mean of less than 50 pg/ml IL-2 was secreted) | 0 (A “0” indicates a mean of less than 50 pg/ml IL-2 was secreted) | 0 (A “0” indicates a mean of less than 50 pg/ml IL-2 was secreted) | 0 (A “0” indicates a mean of less than 50 pg/ml IL-2 was secreted) | 0 (A “0” indicates a mean of less than 50 pg/ml IL-2 was secreted) | 0 (A “0” indicates a mean of less than 50 pg/ml IL-2 was secreted) | 0 (A “0” indicates a mean of less than 50 pg/ml IL-2 was secreted) | 0 (A “0” indicates a mean of less than 50 pg/ml IL-2 was secreted) | 0 (A “0” indicates a mean of less than 50 pg/ml IL-2 was secreted) | 0 (A “0” indicates a mean of less than 50 pg/ml IL-2 was secreted) | 0 (A “0” indicates a mean of less than 50 pg/ml IL-2 was secreted)
5 | phosphatidylethanolamine [PE] | dose dependent responses |  |  |  |  |  |  | 0 (A “0” indicates a mean of less than 50 pg/ml IL-2 was secreted) | + (“+” indicates 50-250 pg/ml) |  |  | 0 (A “0” indicates a mean of less than 50 pg/ml IL-2 was secreted) |  | 0 (A “0” indicates a mean of less than 50 pg/ml IL-2 was secreted) | 0 (A “0” indicates a mean of less than 50 pg/ml IL-2 was secreted) | 0 (A “0” indicates a mean of less than 50 pg/ml IL-2 was secreted) | 
